Assay results as given in PMC10707942, “Polyaromatic Bis(indolyl)methane Derivatives with Antiproliferative and Antiparasitic Activity” (Molecules, 2023).

Columns and labels:
[1] = system: Leishmania donovani; design: method as in PMID 18703668, PMID 17922678; conditions: cited from earlier work
[2] = system: HT-29 cell line; design: method as in PMID 30715794; conditions: cited from earlier work
[3] = system: T. brucei; test: Trypanocidal activity, alamarBlue assay; assay type: cell-based, Trypanosoma brucei; conditions: for Selectivity Index (SI) T. brucei: SI = IC50 MRC-5/IC50 T. brucei; for IC50: Trypanosoma brucei, 72 h, alamarBlue, error reported as σ
Experimental: The trypanocidal activity of the compounds was assessed using the alamarBlue® assay (ThermoFisher Scientific, Waltham, MA, USA). […] Finally, cells were lysed with 50 μL per well of SDS 3%. The plate was incubated at 37 °C for an extra hour; then, the fluorescence intensity was measured with an Infinite F200 plate reader (Tecan Austria, GmbH, Grödig, Austria), exciting at 550 nm and recording the emission at 590 nm. The results are expressed as the concentration of the compound that reduces cell growth by 50% versus untreated control cells (IC50). Data are presented as the average of at least three independent measurements all conducted in triplicate.

[4] = system: L. major; test: Leishmanicidal activity, MTT-based assay; assay type: cell-based, Leishmania major; conditions: for IC50: Leishmania major, promastigotes, 72 h, MTT, error reported as σ; for Selectivity Index (SI) L. major: SI = IC50 MRC-5/IC50 L. major
Experimental: (§1) The biological activity of the bis(indolyl)methane derivatives 2a–c were evaluated on in vitro models of parasites (T. brucei and L. major), human cancer cells (HeLa and HT-29) and human healthy cells (MRC-5). The toxicity of the BIM derivatives was determined through alamarBlue assay (for T. brucei and MRC-5) or MTT assay (for L. major), and the results are expressed as the concentration of the compound that reduces cell viability by 50% calculated through dose-response curves to give half maximal inhibitory concentration (IC50) (see Figures S7–S11).
L. major (MHOM/IL/80/Friedlin) promastigotes were cultured at 28 °C, 5% CO2 in modified RPMI-1640 medium (Invitrogen, Carlsbad, CA, USA) supplemented with 10% hiFBS [45]. Parasites were maintained in culture in their experimental growth phase (below 2 million parasites per mL for T. brucei and 10 million parasites per mL for L. major).
The leishmanicidal activity of the compounds was determined using MTT-based assay (Sigma-Aldrich, St. Louis, MO, USA). The stock solutions of the compounds were prepared in DMSO, and the final DMSO percentage in each well was adjusted to be less than 1%. A total of 4 × 10^6 parasites per mL were incubated at 28 °C in 96-well plates (50 μL/well) alone or in the presence of an increasing concentration of compounds DMSO for 72 h. A total of 10 μL of MTT (5 mg/mL) was added to each well, and parasites were incubated for 4 h at 28 °C. Finally, cells were lysed with 50 μL/well of 20% SDS. The plate was incubated at 37 °C for an extra hour; then, the absorbance was measured with the Infinite F200 plate reader (TECAN Austria, GmbH, Grödig, Austria) at a wavelength of 540 nm. The IC50 was calculated as described above. Data are presented as the average of at least three independent measurements all conducted in triplicate.

[5] = system: MRC-5 cell line (human lung fibroblast); test: Cytotoxicity in healthy cell line, alamarBlue assay; assay type: cell-based; conditions: MRC5, 72 h, error reported as σ
Experimental: as §1
MRC-5 cell line (human lung fibroblast) was grown in monolayer at 37 °C, 5% CO2 in DMEM medium (1 g/L glucose) supplemented with 10% hiFBS, 100 U/mL penicillin, […] streptomycin and 2 mM L-glutamine.
(§2) Cytotoxicity was measured in MRC-5, HeLa and HT-29 cell lines using alamarBlue® assay (ThermoFisher Scientific). The stock solutions of the compounds were prepared in DMSO, and the final DMSO percentage in each well was adjusted to be less than 1%. A total of 5 × 10^3 cells per mL (MRC-5, HeLa or HT-29 cells) were seeded in 96-well plates (100 μL/well) with 24 h of incubation time before compound addition at 37 °C, 5% CO2. Then, the compounds were added at increasing concentrations (from 0 to 100 μM), and the plates were incubated for 72 h. A total of 20 μL of resazurin solution (110 ng/mL) was added to each well, and cells were incubated for 4 h. Then, cells were lysed with 50 μL/well of 3% SDS. The plate was incubated at 37 °C for an extra hour; then, the fluorescence intensity was measured with the Infinite F200 plate reader (TECAN Austria, GmbH), exciting at 550 nm and recording the emission at 590 nm. The results are expressed as the concentration of compound that reduces cell growth by 50% versus untreated control cells (IC50). Data are presented as the average of at least three independent measurements all conducted in triplicate.

[6] = system: HT-29 (human colorectal adenocarcinoma); test: Cytotoxicity in cancer cell line, alamarBlue assay; assay type: cell-based; conditions: for IC50: Homo sapiens, HT-29, 72 h, alamarBlue, error reported as σ; for Selectivity Index (SI) HT-29: SI = IC50 MRC-5/IC50 HT-29
Experimental: (§3) HeLa (human cervical carcinoma) and HT-29 (human colorectal adenocarcinoma) cell lines were maintained at 37 °C, 5% CO2 in high glucose DMEM (4.5 g/L glucose) supplemented with 10% hiFBS, 100 U/mL penicillin, […] streptomycin, 2 mM L-glutamine and non-essential amino acids (1X). Cells were plated and passaged according to ATCC recommendations and were used for the experiments while in the exponential growth phase.
as §2

[7] = system: HeLa (human cervical carcinoma); test: Cytotoxicity in cancer cell line, alamarBlue assay; assay type: cell-based; conditions: for IC50: Homo sapiens, HeLa, 72 h, alamarBlue, error reported as σ; for Selectivity Index (SI) HeLa: SI = IC50 MRC-5/IC50 HeLa
Experimental: as §3, §2

| SMILES | IC50 [1] [µM] | IC50 [2] [µM] | Selectivity Index (SI) T. brucei [3] | IC50 [3] [µM] | IC50 [4] [µM] | Selectivity Index (SI) L. major [4] | IC50 [5] [µM] | IC50 [6] [µM] | Selectivity Index (SI) HT-29 [6] | IC50 [7] [µM] | Selectivity Index (SI) HeLa [7] |
| --- | --- | --- | --- | --- | --- | --- | --- | --- | --- | --- | --- |
| c1ccc2c(Cc3c[nH]c4ccccc34)c[nH]c2c1 [Arundine, 3,3-diindolylmethane] | 1.2 | > 100 |  |  |  |  |  |  |  |  |  |
| c1ccc(N(c2ccccc2)c2ccc(C(c3c[nH]c4ccccc34)c3c[nH]c4ccccc34)cc2)cc1 [Compound 2a] |  |  | 10.50 | 3.21 ± 0.04 | 3.3 ± 0.25 | 10.21 | 33.7 ± 3.19 | 3.93 ± 0.49 | 8.57 | 37.5 ± 1.86 | 0.90 |
| CN(C)c1ccc(C(c2c[nH]c3ccccc23)c2c[nH]c3ccccc23)c2ccccc12 [Compound 2b] |  |  | 5.93 | 16 ± 4.44 | > 100 | <0.95 | 94.9 ± 7.27 | 25.4 ± 5.23 | 3.73 | 89.56 ± 0.15 | 1.06 |
| Oc1cccc2ccc(C(c3c[nH]c4ccccc34)c3c[nH]c4ccccc34)nc12 [Compound 2c] |  |  |  | 14.66 ± 0.05 | 20.7 ± 1.71 |  | 3.25 ± 0.29 | 71.4 ± 3.99 | 0.05 | 28.3 ± 5.01 | 0.11 |
